From patent US20250051338A1, “TYK2 DEGRADERS AND USES THEREOF” (Kymera Therapeutics, Inc., priority 2021, published 2025)

Assays:
Format in all cases: cell-based
TYK2 [1] = biological target: T1, TYK2 (Homo sapiens, UniProt P29597); assay: TYK2 degradation MSD assay in human PBMC cells; set-up: endogenous in cells; host or cells: human PBMC; details: 4 to 24 hours incubation, read-out: TYK2 MSD DC50 rating in human PBMC
Method in brief: (§1)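 Cells (0.4 million per well) were treated with a 9-point, 1:3 compound series from a top concentration of 1 to 10 μM for 4 to 24 hours at 37° C, then lysed in RIPA with protease/phosphatase inhibitors. Remaining TYK2 was quantified by sandwich MSD immunoassay; DC50 came from four-parameter nonlinear fits.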

TYK2 [2] = biological target: T1, TYK2; assay: TYK2 degradation MSD assay in OCI-LY10 cells; set-up: endogenous in cells; host or cells: EBV-B cells; details: 4 to 24 hours incubation, read-out: TYK2 MSD DC50 rating in OCI-LY10
Method in brief: as §1

TYK2 [3] = biological target: T1, TYK2; assay: TYK2 degradation MSD assay in EBV-B cells; set-up: endogenous in cells; host or cells: EBV-B cells; details: 4 to 24 hours incubation, read-out: TYK2 MSD DC50 rating in EBV-B
Method in brief: as §1

T1 sequence (P29597 whole entry): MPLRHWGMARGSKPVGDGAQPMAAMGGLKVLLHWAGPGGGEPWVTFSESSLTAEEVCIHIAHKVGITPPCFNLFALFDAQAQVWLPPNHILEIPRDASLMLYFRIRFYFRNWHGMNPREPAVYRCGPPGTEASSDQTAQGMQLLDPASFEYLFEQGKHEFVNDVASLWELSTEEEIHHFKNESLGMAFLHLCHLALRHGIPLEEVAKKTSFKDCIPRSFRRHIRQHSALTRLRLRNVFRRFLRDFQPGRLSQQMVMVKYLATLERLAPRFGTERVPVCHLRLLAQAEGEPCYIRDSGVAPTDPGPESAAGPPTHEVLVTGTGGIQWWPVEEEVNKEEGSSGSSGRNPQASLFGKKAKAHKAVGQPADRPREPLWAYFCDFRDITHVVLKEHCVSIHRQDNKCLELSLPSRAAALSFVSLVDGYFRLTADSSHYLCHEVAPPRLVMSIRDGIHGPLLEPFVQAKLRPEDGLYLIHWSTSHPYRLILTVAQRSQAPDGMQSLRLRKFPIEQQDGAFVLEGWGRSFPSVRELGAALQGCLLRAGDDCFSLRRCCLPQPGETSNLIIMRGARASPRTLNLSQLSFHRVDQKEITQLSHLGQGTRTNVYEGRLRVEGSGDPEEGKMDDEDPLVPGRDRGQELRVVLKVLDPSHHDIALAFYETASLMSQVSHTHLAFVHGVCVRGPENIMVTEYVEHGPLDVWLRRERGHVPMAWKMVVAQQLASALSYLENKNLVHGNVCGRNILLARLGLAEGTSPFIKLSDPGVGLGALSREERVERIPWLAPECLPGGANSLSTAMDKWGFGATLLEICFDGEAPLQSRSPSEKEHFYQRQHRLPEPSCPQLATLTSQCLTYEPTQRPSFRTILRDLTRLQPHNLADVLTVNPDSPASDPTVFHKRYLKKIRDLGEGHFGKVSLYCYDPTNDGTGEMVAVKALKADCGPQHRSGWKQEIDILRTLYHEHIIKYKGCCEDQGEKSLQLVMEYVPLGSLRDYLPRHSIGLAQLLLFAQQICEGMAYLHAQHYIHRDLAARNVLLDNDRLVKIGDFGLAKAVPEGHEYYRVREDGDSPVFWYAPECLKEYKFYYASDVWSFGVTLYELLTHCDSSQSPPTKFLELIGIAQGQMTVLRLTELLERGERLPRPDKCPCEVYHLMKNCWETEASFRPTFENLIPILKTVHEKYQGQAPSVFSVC

DC50 (TYK2 [1]) | DC50 (TYK2 [2]) | DC50 (TYK2 [3]) | SMILES
> 0.1 µM | 0.001 to 0.01 µM | > 0.1 µM | CNc1cc(Nc2cccc(N3CCC(CN4CCN(c5ccc(-c6ccc7c(c6)n(C)c(=O)n7C6CCC(=O)NC6=O)cc5)CC4)CC3)c2OC)nn2c(C(=O)N[C@@H]3C[C@@H]3F)cnc12 (stereo partly drawn) [Example K619]
> 0.1 µM | 0.001 to 0.01 µM | > 0.1 µM | CNc1cc(Nc2cccc(C3CCC(CN4CCN(c5ccc(-c6ccc7c(c6)n(C)c(=O)n7C6CCC(=O)NC6=O)cc5)CC4)CC3)c2OC)nn2c(C(=O)N[C@@H]3C[C@@H]3F)cnc12 (stereo partly drawn) [Example K621]
> 0.1 µM | < 0.001 µM | > 0.1 µM | CNc1cc(Nc2cccc(N3CCC(CN4CCC(c5ccc(-c6ccc7c(c6)n(C)c(=O)n7C6CCC(=O)NC6=O)cc5)CC4)CC3)c2OC)nn2c(C(=O)N[C@@H]3C[C@@H]3F)cnc12 (stereo partly drawn) [Example K622]
> 0.1 µM | < 0.001 µM | > 0.1 µM | CNc1cc(Nc2cccc(N3CCC(CN4CC5(C4)CN(c4ccc(-c6ccc7c(c6)n(C)c(=O)n7C6CCC(=O)NC6=O)cc4)C5)CC3)c2OC)nn2c(C(=O)N[C@@H]3C[C@@H]3F)cnc12 (stereo partly drawn) [Example K623]
> 0.1 µM | < 0.001 µM | > 0.1 µM | CNc1cc(Nc2cccc(-c3ccc(C(=O)N4CCN([C@H]5CC[C@H](c6ccc(-c7ccc8c(c7)n(C)c(=O)n8C7CCC(=O)NC7=O)cc6)CC5)CC4)cn3)c2)nn2c(C(=O)N[C@@H]3C[C@@H]3F)cnc12 (stereo partly drawn) [Example K632]
> 0.1 µM | < 0.001 µM | > 0.1 µM | CNc1cc(Nc2cccc(-c3ccc(C(=O)N4CCN(c5ccc(-c6ccc7c(c6)n(C)c(=O)n7C6CCC(=O)NC6=O)cc5)CC4)cn3)c2)nn2c(C(=O)N[C@@H]3C[C@@H]3F)cnc12 (stereo partly drawn) [Example K633]
> 0.1 µM | < 0.001 µM | > 0.1 µM | CNc1cc(N2CCc3c(CN4CCC(CN5CCN(c6ccc7c(c6)n(C)c(=O)n7C6CCC(=O)NC6=O)CC5)CC4)cccc32)nn2c(C(=O)N[C@@H]3C[C@@H]3F)cnc12 (stereo partly drawn) [Example K634]
> 0.1 µM | 0.001 to 0.01 µM | > 0.1 µM | CNc1cc(N2CCc3c(N4CCC(CN5CCC(C#Cc6cccc7c6n(C)c(=O)n7C6CCC(=O)NC6=O)CC5)CC4)cccc32)nn2c(C(=O)N[C@@H]3C[C@@H]3F)cnc12 (stereo partly drawn) [Example K635]
> 0.1 µM | 0.001 to 0.01 µM | > 0.1 µM | CNc1cc(N2CCc3c(-c4ccc(CN5CCN(c6cccc7c6n(C)c(=O)n7C6CCC(=O)NC6=O)CC5)cn4)cccc32)nn2c(C(=O)N[C@@H]3C[C@@H]3F)cnc12 (stereo partly drawn) [Example K637]
> 0.1 µM | < 0.001 µM | > 0.1 µM | CNc1cc(N2CCc3c(N4CCC(CN5CCN(c6ccc7c(c6)n(C)c(=O)n7C6CCC(=O)NC6=O)CC5)CC4)cccc32)nn2c(C(=O)N[C@@H]3C[C@@H]3F)cnc12 (stereo partly drawn) [Example K638]
> 0.1 µM | > 0.1 µM | > 0.1 µM | CNc1cc(Nc2cccc(C3CCN(CCc4cccc5c4n(C)c(=O)n5C4CCC(=O)NC4=O)CC3)c2)nn2c(C(=O)N[C@@H]3C[C@@H]3F)cnc12 (stereo partly drawn) [Example K641]
> 0.1 µM | > 0.1 µM | > 0.1 µM | CNc1cc(Nc2cccc(C3CCN(C(=O)Cc4cccc5c4n(C)c(=O)n5C4CCC(=O)NC4=O)CC3)c2)nn2c(C(=O)N[C@@H]3C[C@@H]3F)cnc12 (stereo partly drawn) [Example K647]
> 0.1 µM | > 0.1 µM | > 0.1 µM | CNc1cc(N2CCc3c(-c4cc(N5CCN(c6cccc7c6n(C)c(=O)n7C6CCC(=O)NC6=O)CC5)ccn4)cccc32)nn2c(C(=O)N[C@@H]3C[C@@H]3F)cnc12 (stereo partly drawn) [Example K653]
> 0.1 µM | 0.001 to 0.01 µM | > 0.1 µM | CNc1cc(N2CCc3c(-c4cc(N5CCN(CC6CCN(c7cccc8c7n(C)c(=O)n8C7CCC(=O)NC7=O)CC6)CC5)ccn4)cccc32)nn2c(C(=O)NC3CC3F)cnc12 (stereo not drawn) [Example K656]

Second part, the molecule before the results:

SMILES | DC50 (TYK2 [1]) | DC50 (TYK2 [2]) | DC50 (TYK2 [3])
CNc1cc(N2CCc3c(-c4ccc(C(=O)N5CCN([C@H]6CC[C@H](c7ccc(-c8ccc9c(c8)n(C)c(=O)n9C8CCC(=O)NC8=O)cc7)CC6)CC5)cn4)cccc32)nn2c(C(=O)N[C@@H]3C[C@@H]3F)cnc12 (stereo partly drawn) [Example K616] | > 0.1 µM | 0.001 to 0.01 µM | > 0.1 µM
CNc1cc(Nc2cccc(-c3ccc(C(=O)N4CCN(C5CCC(c6ccc(-c7ccc8c(c7)n(C)c(=O)n8C7CCC(=O)NC7=O)cc6)CC5)CC4)cn3)c2OC)nn2c(C(=O)N[C@@H]3C[C@@H]3F)cnc12 (stereo partly drawn) [Example K617] | > 0.1 µM | < 0.001 µM | > 0.1 µM
CNc1cc(Nc2cccn(-c3ccc(C(=O)NCCOCCOCCOCCOCCNc4cncc(N5CCCC(C(=O)Nc6ccc(=O)n(CC(=O)OC)c6)C5)c4)cn3)c2=O)nn2c(C(=O)N[C@@H]3C[C@@H]3F)cnc12 (stereo partly drawn) [Example K618] | > 0.1 µM | > 0.1 µM | > 0.1 µM
CNc1cc(N2CCN(c3ccc(CN4CCN(c5ccc(-c6ccc7c(c6)n(C)c(=O)n7C6CCC(=O)NC6=O)cc5)CC4)cc3)CC2)nn2c(C(=O)N[C@@H]3C[C@@H]3F)cnc12 (stereo partly drawn) [Example K620] | > 0.1 µM | > 0.1 µM | > 0.1 µM
CNc1cc(N2CCc3c(-c4ccc(CN5CCC6(CC5)CCN(C(=O)c5cccc(N7CCC(=O)NC7=O)c5)CC6)cn4)cccc32)nn2c(C(=O)N[C@@H]3C[C@@H]3F)cnc12 [Example K625] | > 0.1 µM | < 0.001 µM | > 0.1 µM
CNc1cc(N2CCc3c(-c4ccc(C(=O)N5CCC(CN6CCN(c7ccc(-c8ccc9c(c8)n(C)c(=O)n9C8CCC(=O)NC8=O)cc7)CC6)CC5)cn4)cccc32)nn2c(C(=O)N[C@@H]3C[C@@H]3F)cnc12 (stereo partly drawn) [Example K627] | > 0.1 µM | < 0.001 µM | > 0.1 µM
CNc1cc(Nc2cccc(-c3ccc(C(=O)N4CCN(CC5CCN(c6ccc(-c7ccc8c(c7)n(C)c(=O)n8C7CCC(=O)NC7=O)cc6)CC5)CC4)cn3)c2OC)nn2c(C(=O)N[C@@H]3C[C@@H]3F)cnc12 (stereo partly drawn) [Example K628] | > 0.1 µM | 0.001 to 0.01 µM | > 0.1 µM
CNc1cc(Nc2cccc(-c3ccc(C(=O)N4CCC(CN5CCN(c6ccc(-c7ccc8c(c7)n(C)c(=O)n8C7CCC(=O)NC7=O)cc6)CC5)CC4)cn3)c2OC)nn2c(C(=O)N[C@@H]3C[C@@H]3F)cnc12 (stereo partly drawn) [Example K629] | > 0.1 µM | < 0.001 µM | > 0.1 µM
CNc1cc(Nc2cccc(-c3ccc(CN4CCN(c5ccc(-c6ccc7c(c6)n(C)c(=O)n7C6CCC(=O)NC6=O)cc5)CC4)cn3)c2OC)nn2c(-c3cn(C(C)C)nn3)cnc12 (stereo not drawn) [Example K630] | > 0.1 µM | 0.001 to 0.01 µM | > 0.1 µM
CNc1cc(N2CCc3c(-c4ccc(CN5CCN(c6ccc(-c7ccc8c(c7)n(C)c(=O)n8C7CCC(=O)NC7=O)cc6)CC5)cn4)cccc32)nn2c(-c3cn(C(C)C)nn3)cnc12 (stereo not drawn) [Example K631] | > 0.1 µM | 0.001 to 0.01 µM | > 0.1 µM
Cn1c(=O)n(C2CCC(=O)NC2=O)c2ccc(-c3ccc(N4CCN(Cc5ccc(-c6cccc(Nc7nn8c(C(=O)N[C@@H]9C[C@@H]9F)cnc8c8c7OCCN8)c6Cl)nc5)CC4)cc3)cc21 (stereo partly drawn) [Example K642] | > 0.1 µM | 0.001 to 0.01 µM | > 0.1 µM
CNc1cc(N2CCc3c(N4CCN(C5CCN(c6ccc7c(c6)n(C)c(=O)n7C6CCC(=O)NC6=O)CC5)CC4)cccc32)nn2c(C(=O)N[C@@H]3C[C@@H]3F)cnc12 (stereo partly drawn) [Example K645] | > 0.1 µM | < 0.001 µM | > 0.1 µM
CNc1cc(N2CCc3c(N4CCN(C5CC6(CCN(c7ccc8c(c7)n(C)c(=O)n8C7CCC(=O)NC7=O)CC6)C5)CC4)cccc32)nn2c(C(=O)N[C@@H]3C[C@@H]3F)cnc12 (stereo partly drawn) [Example K646] | > 0.1 µM | < 0.001 µM | > 0.1 µM
CNc1cc(Nc2ccc(F)c(-c3ccc(Cc4ccc(-c5ccc6c(c5)n(C)c(=O)n6C5CCC(=O)NC5=O)cc4)cn3)c2OC)nn2c(C(=O)N[C@@H]3C[C@@H]3F)cnc12 (stereo partly drawn) [Example K648] | > 0.1 µM | 0.001 to 0.01 µM | > 0.1 µM
CNc1cc(N2CCc3c(-c4cc(N5CCN([C@H]6CC[C@H](c7ccc8c(c7)n(C)c(=O)n8C7CCC(=O)NC7=O)CC6)CC5)ccn4)cccc32)nn2c(C(=O)NC3CC3F)cnc12 (stereo partly drawn) [Example K650, N-[(1R,2S)-2-fluorocyclopropyl]-8-(methylamino)-6-[4-(4-{4-[(1r,4r)-4-[1-(2,6-dioxopiperidin-3-yl)-3-methyl-2-oxo-1,3-benzodiazol-5-yl]cyclohexyl]piperazin-1-yl}pyridin-2-yl)-2,3-dihydroindol-1-yl]imidazo[1,2-b]pyridazine-3-carboxamide] | > 0.1 µM | < 0.001 µM | > 0.1 µM
CNc1cc(N2CCc3c(-c4cc(N5CCN(c6ccc7c(c6)n(C)c(=O)n7C6CCC(=O)NC6=O)CC5)ccn4)cccc32)nn2c(C(=O)C[C@@H]3C[C@@H]3F)cnc12 (stereo partly drawn) [Example K652] | > 0.1 µM | > 0.1 µM | > 0.1 µM
CNc1cc(N2CCc3c(-c4cc(CN5CCN(c6ccc7c(c6)n(C)c(=O)n7C6CCC(=O)NC6=O)CC5)ccn4)cccc32)nn2c(C(=O)NC3CC3F)cnc12 (stereo not drawn) [Example K657] | > 0.1 µM | < 0.001 µM | > 0.1 µM
CNc1cc(N2CCc3c(-c4cc(CN5CCN(c6ccc(-c7ccc8c(c7)n(C)c(=O)n8C7CCC(=O)NC7=O)cc6)CC5)ccn4)cccc32)nn2c(C(=O)N[C@@H]3C[C@@H]3F)cnc12 (stereo partly drawn) [Example K658] | > 0.1 µM | 0.001 to 0.01 µM | > 0.1 µM
